Measured values reported in ChEMBL document CHEMBL1240393, “Full Resistance and decreased susceptibility to carbapenems in IMP-13-producing Pseudomonas aeruginosa isolates from an outbreak” (2010).
≈ marks a conversion by molar mass, not a printed value.

Tests used:
Pseudomonas aeruginosa [1] = experiment: Antibacterial activity against beta-lactamase IMP-13 producing Pseudomonas aeruginosa isolate 17
Pseudomonas aeruginosa [2] = experiment: Antibacterial activity against beta-lactamase IMP-13 producing Pseudomonas aeruginosa isolate 9
Pseudomonas aeruginosa [3] = experiment: Antibacterial activity against beta-lactamase IMP-13 producing Pseudomonas aeruginosa isolate 11; format: functional
Pseudomonas aeruginosa [4] = experiment: Antibacterial activity against beta-lactamase IMP-13 producing Pseudomonas aeruginosa isolate 14 assessed as zone of inhibition by disk diffusion assay; format: functional
Pseudomonas aeruginosa [5] = experiment: Antibacterial activity against beta-lactamase IMP-13 producing Pseudomonas aeruginosa isolate 17 assessed as zone of inhibition by disk diffusion assay; format: functional
Pseudomonas aeruginosa [6] = experiment: Antibacterial activity against beta-lactamase IMP-13 producing Pseudomonas aeruginosa isolate 18 assessed as zone of inhibition by disk diffusion assay; format: functional
Pseudomonas aeruginosa [7] = experiment: Antibacterial activity against beta-lactamase IMP-13 producing Pseudomonas aeruginosa isolate 12 assessed as zone of inhibition by disk diffusion assay; format: functional
Pseudomonas aeruginosa [8] = experiment: Antibacterial activity against beta-lactamase IMP-13 producing Pseudomonas aeruginosa isolate 16; format: functional
Pseudomonas aeruginosa [9] = experiment: Antibacterial activity against beta-lactamase IMP-13 producing Pseudomonas aeruginosa isolate 8 assessed as zone of inhibition by disk diffusion assay; format: functional
Pseudomonas aeruginosa [10] = experiment: Antibacterial activity against beta-lactamase IMP-13 producing Pseudomonas aeruginosa isolate 3; format: functional
Pseudomonas aeruginosa [11] = experiment: Antibacterial activity against beta-lactamase IMP-13 producing Pseudomonas aeruginosa isolate 10 assessed as zone of inhibition by disk diffusion assay; format: functional
Pseudomonas aeruginosa [12] = experiment: Antibacterial activity against beta-lactamase IMP-13 producing Pseudomonas aeruginosa isolate 10; format: functional
Pseudomonas aeruginosa [13] = experiment: Antibacterial activity against beta-lactamase IMP-13 producing Pseudomonas aeruginosa isolate 3 assessed as zone of inhibition by disk diffusion assay; format: functional
Pseudomonas aeruginosa [14] = experiment: Antibacterial activity against beta-lactamase IMP-13 producing Pseudomonas aeruginosa isolate 18
Pseudomonas aeruginosa [15] = experiment: Antibacterial activity against beta-lactamase IMP-13 producing Pseudomonas aeruginosa isolate 1 assessed as zone of inhibition by disk diffusion assay; format: functional
Pseudomonas aeruginosa [16] = experiment: Antibacterial activity against beta-lactamase IMP-13 producing Pseudomonas aeruginosa isolate 12; format: functional
Pseudomonas aeruginosa [17] = experiment: Antibacterial activity against beta-lactamase IMP-13 producing Pseudomonas aeruginosa isolate 15 assessed as zone of inhibition by disk diffusion assay; format: functional
Pseudomonas aeruginosa [18] = experiment: Antibacterial activity against beta-lactamase IMP-13 producing Pseudomonas aeruginosa isolate 2 assessed as zone of inhibition by disk diffusion assay; format: functional
Pseudomonas aeruginosa [19] = experiment: Antibacterial activity against beta-lactamase IMP-13 producing Pseudomonas aeruginosa isolate 5 assessed as zone of inhibition by disk diffusion assay; format: functional
Pseudomonas aeruginosa [20] = experiment: Antibacterial activity against beta-lactamase IMP-13 producing Pseudomonas aeruginosa isolate 13 assessed as zone of inhibition by disk diffusion assay; format: functional
Pseudomonas aeruginosa [21] = experiment: Antibacterial activity against beta-lactamase IMP-13 producing Pseudomonas aeruginosa isolate 7 assessed as zone of inhibition by disk diffusion assay; format: functional
Pseudomonas aeruginosa [22] = experiment: Antibacterial activity against beta-lactamase IMP-13 producing Pseudomonas aeruginosa isolate 5; format: functional
Pseudomonas aeruginosa [23] = experiment: Antibacterial activity against beta-lactamase IMP-13 producing Pseudomonas aeruginosa isolate 9 assessed as zone of inhibition by disk diffusion assay; format: functional
Pseudomonas aeruginosa [24] = experiment: Antibacterial activity against beta-lactamase IMP-13 producing Pseudomonas aeruginosa isolate 4; format: functional
Pseudomonas aeruginosa [25] = experiment: Antibacterial activity against beta-lactamase IMP-13 producing Pseudomonas aeruginosa isolate 4 assessed as zone of inhibition by disk diffusion assay; format: functional
Pseudomonas aeruginosa [26] = experiment: Antibacterial activity against beta-lactamase IMP-13 producing Pseudomonas aeruginosa isolate 14; format: functional
Pseudomonas aeruginosa [27] = experiment: Antibacterial activity against beta-lactamase IMP-13 producing Pseudomonas aeruginosa isolate 7; format: functional
Pseudomonas aeruginosa [28] = experiment: Antibacterial activity against beta-lactamase IMP-13 producing Pseudomonas aeruginosa isolate 2; format: functional
Pseudomonas aeruginosa [29] = experiment: Antibacterial activity against beta-lactamase IMP-13 producing Pseudomonas aeruginosa isolate 15; format: functional
Pseudomonas aeruginosa [30] = experiment: Antibacterial activity against beta-lactamase IMP-13 producing Pseudomonas aeruginosa isolate 1; format: functional
Pseudomonas aeruginosa [31] = experiment: Antibacterial activity against beta-lactamase IMP-13 producing Pseudomonas aeruginosa isolate 11 assessed as zone of inhibition by disk diffusion assay; format: functional
Pseudomonas aeruginosa [32] = experiment: Antibacterial activity against beta-lactamase IMP-13 producing Pseudomonas aeruginosa isolate 8; format: functional
Pseudomonas aeruginosa [33] = experiment: Antibacterial activity against beta-lactamase IMP-13 producing Pseudomonas aeruginosa isolate 6 assessed as zone of inhibition by disk diffusion assay; format: functional
Pseudomonas aeruginosa [34] = experiment: Antibacterial activity against beta-lactamase IMP-13 producing Pseudomonas aeruginosa isolate 16 assessed as zone of inhibition by disk diffusion assay; format: functional
Pseudomonas aeruginosa [35] = experiment: Antibacterial activity against beta-lactamase IMP-13 producing Pseudomonas aeruginosa isolate 6
Pseudomonas aeruginosa [36] = experiment: Antibacterial activity against beta-lactamase IMP-13 producing Pseudomonas aeruginosa isolate 13; format: functional

Structure (SMILES)	MIC (Pseudomonas aeruginosa [1])	MIC (Pseudomonas aeruginosa [2])	MIC (Pseudomonas aeruginosa [3])	inhibition zone (IZ) (Pseudomonas aeruginosa [4])	inhibition zone (IZ) (Pseudomonas aeruginosa [5])	inhibition zone (IZ) (Pseudomonas aeruginosa [6])	inhibition zone (IZ) (Pseudomonas aeruginosa [7])	MIC (Pseudomonas aeruginosa [8])	inhibition zone (IZ) (Pseudomonas aeruginosa [9])	MIC (Pseudomonas aeruginosa [10])	inhibition zone (IZ) (Pseudomonas aeruginosa [11])	MIC (Pseudomonas aeruginosa [12])	inhibition zone (IZ) (Pseudomonas aeruginosa [13])	MIC (Pseudomonas aeruginosa [14])	inhibition zone (IZ) (Pseudomonas aeruginosa [15])	MIC (Pseudomonas aeruginosa [16])	inhibition zone (IZ) (Pseudomonas aeruginosa [17])	inhibition zone (IZ) (Pseudomonas aeruginosa [18])	inhibition zone (IZ) (Pseudomonas aeruginosa [19])	inhibition zone (IZ) (Pseudomonas aeruginosa [20])	further results
C[C@@H](O)[C@H]1C(=O)N2C(C(=O)O)=C(SCCNC=N)C[C@H]12 [IMIPENEM ANHYDROUS]	2 µg/mL (≈ 6.68 µM)	2 µg/mL (≈ 6.68 µM)	2 µg/mL (≈ 6.68 µM)	6 mm	20 mm	21 mm	18 mm	32 µg/mL (≈ 107 µM)	21 mm	2 µg/mL (≈ 6.68 µM)	21 mm	2 µg/mL (≈ 6.68 µM)	20 mm	2 µg/mL (≈ 6.68 µM)	20 mm	4 µg/mL (≈ 13.4 µM)	7 mm	21 mm	21 mm	6 mm	inhibition zone (IZ) (Pseudomonas aeruginosa [21]): 21 mm; MIC (Pseudomonas aeruginosa [22]): 2 µg/mL (≈ 6.68 µM); inhibition zone (IZ) (Pseudomonas aeruginosa [23]): 18 mm; MIC (Pseudomonas aeruginosa [24]): 2 µg/mL (≈ 6.68 µM); inhibition zone (IZ) (Pseudomonas aeruginosa [25]): 21 mm; MIC (Pseudomonas aeruginosa [26]): 32 µg/mL (≈ 107 µM); MIC (Pseudomonas aeruginosa [27]): 2 µg/mL (≈ 6.68 µM); MIC (Pseudomonas aeruginosa [28]): 2 µg/mL (≈ 6.68 µM); MIC (Pseudomonas aeruginosa [29]): 32 µg/mL (≈ 107 µM); MIC (Pseudomonas aeruginosa [30]): 4 µg/mL (≈ 13.4 µM); inhibition zone (IZ) (Pseudomonas aeruginosa [31]): 21 mm; MIC (Pseudomonas aeruginosa [32]): 2 µg/mL (≈ 6.68 µM); inhibition zone (IZ) (Pseudomonas aeruginosa [33]): 20 mm; inhibition zone (IZ) (Pseudomonas aeruginosa [34]): 6 mm; MIC (Pseudomonas aeruginosa [35]): 2 µg/mL (≈ 6.68 µM); MIC (Pseudomonas aeruginosa [36]): 32 µg/mL (≈ 107 µM)
C[C@@H](O)[C@H]1C(=O)N2C(C(=O)O)=C(S[C@@H]3CN[C@H](C(=O)N(C)C)C3)[C@H](C)[C@H]12 [MEROPENEM]	2 µg/mL (≈ 5.22 µM)	2 µg/mL (≈ 5.22 µM)	4 µg/mL (≈ 10.4 µM)	6 mm	20 mm	21 mm	17 mm	128 µg/mL (≈ 334 µM)	21 mm	4 µg/mL (≈ 10.4 µM)	20 mm	4 µg/mL (≈ 10.4 µM)	16 mm	2 µg/mL (≈ 5.22 µM)	18 mm	8 µg/mL (≈ 20.9 µM)	6 mm	17 mm	17 mm	6 mm	inhibition zone (IZ) (Pseudomonas aeruginosa [21]): 17 mm; MIC (Pseudomonas aeruginosa [22]): 4 µg/mL (≈ 10.4 µM); inhibition zone (IZ) (Pseudomonas aeruginosa [23]): 19 mm; MIC (Pseudomonas aeruginosa [24]): 4 µg/mL (≈ 10.4 µM); inhibition zone (IZ) (Pseudomonas aeruginosa [25]): 21 mm; MIC (Pseudomonas aeruginosa [26]): 128 µg/mL (≈ 334 µM); MIC (Pseudomonas aeruginosa [27]): 4 µg/mL (≈ 10.4 µM); MIC (Pseudomonas aeruginosa [28]): 4 µg/mL (≈ 10.4 µM); MIC (Pseudomonas aeruginosa [29]): 128 µg/mL (≈ 334 µM); MIC (Pseudomonas aeruginosa [30]): 4 µg/mL (≈ 10.4 µM); inhibition zone (IZ) (Pseudomonas aeruginosa [31]): 19 mm; MIC (Pseudomonas aeruginosa [32]): 4 µg/mL (≈ 10.4 µM); inhibition zone (IZ) (Pseudomonas aeruginosa [33]): 16 mm; inhibition zone (IZ) (Pseudomonas aeruginosa [34]): 6 mm; MIC (Pseudomonas aeruginosa [35]): 2 µg/mL (≈ 5.22 µM); MIC (Pseudomonas aeruginosa [36]): 128 µg/mL (≈ 334 µM)
